The values below come from ChEMBL document CHEMBL1201862, “PubChem BioAssay data set” (2004).

Molecules are shown by their SMILES. Active and inactive are the calls of the source.

Experiment [1] addresses T1, ORF 73 (Human herpesvirus 8, UniProt O40947).
T1 sequence (O40947 whole entry): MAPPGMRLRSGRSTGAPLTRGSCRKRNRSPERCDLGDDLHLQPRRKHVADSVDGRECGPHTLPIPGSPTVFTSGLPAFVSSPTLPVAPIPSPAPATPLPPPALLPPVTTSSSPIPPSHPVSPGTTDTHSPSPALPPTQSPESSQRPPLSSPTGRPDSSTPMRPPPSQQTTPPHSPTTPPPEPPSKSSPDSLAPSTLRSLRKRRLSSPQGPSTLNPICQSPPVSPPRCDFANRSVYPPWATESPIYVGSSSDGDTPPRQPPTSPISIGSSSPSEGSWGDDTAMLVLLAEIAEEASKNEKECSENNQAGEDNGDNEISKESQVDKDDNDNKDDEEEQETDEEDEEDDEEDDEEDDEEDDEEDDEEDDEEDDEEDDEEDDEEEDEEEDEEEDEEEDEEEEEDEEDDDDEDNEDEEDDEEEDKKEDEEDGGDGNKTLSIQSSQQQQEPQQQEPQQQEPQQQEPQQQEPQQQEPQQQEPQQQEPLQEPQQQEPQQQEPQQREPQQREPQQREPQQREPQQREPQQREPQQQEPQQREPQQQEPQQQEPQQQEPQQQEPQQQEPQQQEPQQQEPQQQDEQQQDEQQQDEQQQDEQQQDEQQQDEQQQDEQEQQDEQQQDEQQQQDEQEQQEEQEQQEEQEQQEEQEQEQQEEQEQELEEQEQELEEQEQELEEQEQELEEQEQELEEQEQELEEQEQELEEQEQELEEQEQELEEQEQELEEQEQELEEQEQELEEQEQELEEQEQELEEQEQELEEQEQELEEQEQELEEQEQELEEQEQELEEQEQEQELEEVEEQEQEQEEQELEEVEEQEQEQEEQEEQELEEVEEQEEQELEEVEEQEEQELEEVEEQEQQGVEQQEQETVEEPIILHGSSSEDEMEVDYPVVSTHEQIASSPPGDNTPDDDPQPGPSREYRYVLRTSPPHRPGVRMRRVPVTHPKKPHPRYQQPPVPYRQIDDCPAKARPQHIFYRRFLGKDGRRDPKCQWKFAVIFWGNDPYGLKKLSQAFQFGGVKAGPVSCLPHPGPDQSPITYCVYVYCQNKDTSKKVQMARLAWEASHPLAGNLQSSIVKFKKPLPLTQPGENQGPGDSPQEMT
The experiment can be described thus: KSHV LANA DNA-binding disruption – biochemical, fluorescence polarization, cherry-picked samples, dose response (AID 504725).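 Further: fluorescence polarization of a labeled DNA duplex reporting LANA DNA binding; potency is for inhibitors that block LANA binding to the DNA.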 The arrangement: species or system Human gammaherpesvirus 8. (In general: In fluorescence polarisation assays a small probe gives low polarisation when free and higher when bound to something large.)

For experiment [2], the target named is T2, 1-phosphatidylinositol 4,5-bisphosphate phosphodiesterase gamma-1 (Homo sapiens, UniProt P19174).
T2 sequence (P19174 whole entry): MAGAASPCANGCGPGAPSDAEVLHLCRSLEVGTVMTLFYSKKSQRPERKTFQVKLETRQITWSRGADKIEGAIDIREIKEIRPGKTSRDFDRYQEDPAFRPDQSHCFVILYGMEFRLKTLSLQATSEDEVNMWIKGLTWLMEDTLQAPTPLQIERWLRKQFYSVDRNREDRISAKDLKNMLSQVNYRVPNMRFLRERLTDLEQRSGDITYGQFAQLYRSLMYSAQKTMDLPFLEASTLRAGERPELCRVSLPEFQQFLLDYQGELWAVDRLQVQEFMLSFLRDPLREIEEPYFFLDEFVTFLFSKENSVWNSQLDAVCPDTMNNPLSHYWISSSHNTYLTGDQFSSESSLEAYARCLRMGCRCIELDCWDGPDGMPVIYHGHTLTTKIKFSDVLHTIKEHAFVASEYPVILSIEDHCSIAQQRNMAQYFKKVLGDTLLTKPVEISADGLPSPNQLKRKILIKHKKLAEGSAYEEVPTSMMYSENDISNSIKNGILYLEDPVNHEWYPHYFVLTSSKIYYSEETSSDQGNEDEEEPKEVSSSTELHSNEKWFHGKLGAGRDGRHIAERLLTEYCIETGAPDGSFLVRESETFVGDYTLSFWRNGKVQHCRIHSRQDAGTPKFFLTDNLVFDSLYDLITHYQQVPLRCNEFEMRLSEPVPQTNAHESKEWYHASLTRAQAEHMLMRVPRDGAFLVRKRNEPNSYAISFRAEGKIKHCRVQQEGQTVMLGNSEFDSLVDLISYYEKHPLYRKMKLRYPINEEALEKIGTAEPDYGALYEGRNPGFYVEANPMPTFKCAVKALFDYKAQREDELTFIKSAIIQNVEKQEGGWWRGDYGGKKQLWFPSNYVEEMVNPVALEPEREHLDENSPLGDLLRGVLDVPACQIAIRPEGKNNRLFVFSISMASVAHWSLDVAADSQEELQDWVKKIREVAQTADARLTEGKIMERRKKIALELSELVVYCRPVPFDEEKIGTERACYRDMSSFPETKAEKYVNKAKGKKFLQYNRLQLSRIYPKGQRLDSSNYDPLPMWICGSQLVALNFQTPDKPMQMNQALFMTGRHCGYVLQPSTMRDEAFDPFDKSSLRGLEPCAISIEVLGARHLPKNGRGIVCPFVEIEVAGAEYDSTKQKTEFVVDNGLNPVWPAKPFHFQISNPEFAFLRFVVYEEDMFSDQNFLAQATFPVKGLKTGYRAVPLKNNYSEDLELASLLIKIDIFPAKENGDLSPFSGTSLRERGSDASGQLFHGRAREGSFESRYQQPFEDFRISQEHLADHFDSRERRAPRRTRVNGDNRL
The experiment is described as follows: Counterscreen for inhibitors of phospholipase C isozymes (PLC-B3): Fluorescence-based biochemical high throughput dose response assay to identify inhibitors of phospholipase C isozymes (PLC-gamma1). A general note: The purpose of a counterscreen is to sort out artefacts and off-target activity.

The target in experiment [3] is Intestinal-type alkaline phosphatase (Homo sapiens, UniProt P09923). The experiment is described as follows: inhibition of human intestinal alkaline phosphatase – biochemical, dose response (AID 488876). The format is functional.
Sequence of Intestinal-type alkaline phosphatase (P09923 whole entry): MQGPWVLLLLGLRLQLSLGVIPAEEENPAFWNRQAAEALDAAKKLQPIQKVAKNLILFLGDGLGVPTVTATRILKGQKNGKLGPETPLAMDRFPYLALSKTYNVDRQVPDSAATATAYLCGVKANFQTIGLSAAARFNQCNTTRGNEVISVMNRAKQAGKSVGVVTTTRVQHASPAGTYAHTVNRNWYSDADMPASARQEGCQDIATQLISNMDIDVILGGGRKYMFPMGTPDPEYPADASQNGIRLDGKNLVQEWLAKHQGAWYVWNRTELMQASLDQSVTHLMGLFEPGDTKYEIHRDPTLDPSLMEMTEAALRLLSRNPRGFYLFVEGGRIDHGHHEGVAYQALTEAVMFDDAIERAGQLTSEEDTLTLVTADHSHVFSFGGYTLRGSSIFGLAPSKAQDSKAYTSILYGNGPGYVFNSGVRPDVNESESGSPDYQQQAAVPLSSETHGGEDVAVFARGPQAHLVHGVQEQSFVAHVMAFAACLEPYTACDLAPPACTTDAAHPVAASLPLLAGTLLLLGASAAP
The nature of experiment [4]: NIH-3T3 fibroblast cytotoxicity, dose response, cytotoxicity control, cell-based, fluorescence, Alamar Blue, secondary assay (AID 2327).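 Further: NIH-3T3 mouse fibroblasts cultured with fluconazole at 8 µg/mL.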 The format is functional. A general note: The colour change of resazurin is a common sign of viable cells or microbes.

Regarding `O=C(O)c1cc(N2N=C(C(F)(F)F)/C(=C/C=C/c3ccco3)C2=O)ccc1Cl`, in experiment [1], the AC50 is 2.28 µM (active).
In the case of `O=C(/C=C/c1ccco1)NC(=S)Nc1cccc(C(=O)O)c1`, the IC50 in experiment [2] is > 122 µM (inactive); in experiment [3] it was > 100 µM (inactive).
`CNCc1ccccc1Sc1ccc(O)c(O)c1`: in experiment [4], the EC50 was > 150 µM (inactive).

By AC50 is commonly meant the midpoint of the concentration-response curve, whichever way the signal moves. The IC50 is the concentration at which inhibition is half-maximal. For orientation: EC50 means the concentration that produces a half-maximal response.
